Data as given in ChEMBL document CHEMBL3808361, “Synthesis of 4-(thiazol-2-ylamino)-benzenesulfonamides with carbonic anhydrase I, II and IX inhibitory activity and cytotoxic effects against breast cancer cell lines” (Bioorg Med Chem, 2016).

Tests used:
MCF7 = experiment: cells; conditions: Homo sapiens, MCF7, 24 h
Description: Cytotoxicity against human MCF7 cells assessed as cell survivability after 24 hrs by crystal violet staining based microscopic analysis

Carbonic anhydrase 9 = Carbonic anhydrase 9 (Homo sapiens, UniProt Q16790)
Description: Inhibition of human recombinant CA9 preincubated for 15 mins prior to testing by stopped flow CO2 hydrase assay

SMILES	IC50 (MCF7)	Ki (Carbonic anhydrase 9)
CN(C)c1ccc(-c2nc(NNc3csc(Nc4ccc(S(N)(=O)=O)cc4)n3)[nH]c(=O)c2C#N)cc1	89.7 µM	
NS(=O)(=O)c1ccc(Nc2nc(Nc3ccc(C(=O)O)cc3)cs2)cc1	22.1 µM	8.8 nM
NS(=O)(=O)c1ccc(Nc2nc(NN3C(=O)/C(=C/c4ccc(Cl)cc4)N=C3c3ccccc3)cs2)cc1	> 150 µM	29.2 nM
NS(=O)(=O)c1ccc(Nc2csc(Nc3ccc(S(N)(=O)=O)cc3)n2)cc1	21.5 µM	7.3 nM
N#Cc1c(-c2ccc(Cl)cc2)nc(Sc2csc(Nc3ccc(S(N)(=O)=O)cc3)n2)[nH]c1=O	86.6 µM	
NC(N)=NS(=O)(=O)c1ccc(N/N=C2\SC(Nc3ccc(S(N)(=O)=O)cc3)=NC2=O)cc1	11.9 µM	8.5 nM
NS(=O)(=O)c1ccc(Nc2nc(Nc3ccc(F)cc3)cs2)cc1	12 µM	5.6 nM
N#Cc1c(-c2ccccc2)nc(Sc2csc(Nc3ccc(S(N)(=O)=O)cc3)n2)[nH]c1=O	> 150 µM	
NS(=O)(=O)c1ccc(Nc2nc(NN3C(=O)/C(=C/c4ccccc4)N=C3c3ccc(Cl)cc3)cs2)cc1	> 150 µM	
NS(=O)(=O)c1ccc(NC2=NC(=O)/C(=N/Nc3ccc(Cl)cc3)S2)cc1	10.7 µM	
NS(=O)(=O)c1ccc(NC2=NC(=O)/C(=N/Nc3ccc(C(=O)O)cc3)S2)cc1	5.45 µM	6.4 nM
CN(C)c1ccc(/C=C2\N=C(c3ccccc3)N(Nc3csc(Nc4ccc(S(N)(=O)=O)cc4)n3)C2=O)cc1	38.9 µM	
NS(=O)(=O)c1ccc(Nc2nc(NN3C(=O)/C(=C/c4ccccc4)N=C3c3ccccc3)cs2)cc1	45.9 µM	
NS(=O)(=O)c1ccc(N/N=C2\SC(Nc3ccc(S(N)(=O)=O)cc3)=NC2=O)cc1	2.79 µM	5.8 nM
NS(=O)(=O)c1ccc(Nc2nc(NN3C(=O)/C(=C/c4ccc(Cl)cc4)N=C3c3ccc(Cl)cc3)cs2)cc1	136 µM	
NS(=O)(=O)c1ccc(Nc2nc(N3CCCCC3)cs2)cc1	24.3 µM	6.7 nM
N#Cc1c(-c2ccccc2)nc(NNc2csc(Nc3ccc(S(N)(=O)=O)cc3)n2)[nH]c1=O	> 150 µM	6.5 nM
CN(C)c1ccc(-c2nc(Sc3csc(Nc4ccc(S(N)(=O)=O)cc4)n3)[nH]c(=O)c2C#N)cc1	85 µM	
CN(C)c1ccc(/C=C2\N=C(c3ccc(Cl)cc3)N(Nc3csc(Nc4ccc(S(N)(=O)=O)cc4)n3)C2=O)cc1	44.5 µM	
N#Cc1c(-c2ccc(Cl)cc2)nc(NNc2csc(Nc3ccc(S(N)(=O)=O)cc3)n2)[nH]c1=O	> 150 µM	
O=c1[nH]cc(F)c(=O)[nH]1 [FLUOROURACIL]	11.1 µM	
